Patent US8507235B2, “Isoprene production using the DXP and MVA pathway” (Danisco US Inc., priority 2009, dated 2013)
“And” between values parts separate entries of the source, which are not always exact repeats. Identical values can stand only once. Like-named read-outs stand apart in the source and are kept apart here.

What was measured:
[1] = system: E. coli strain MCM597; experiment: Carbon sources affecting isoprene production during growth on glucose (Biolog PM1 and PM2A plates); type: cell-based; details: 0.5% glucose, 0.2% yeast extract; normalized to control only fed glucose; p<0.1
[2] = system: E. coli strain MCM597; experiment: Carbon sources useful for the production of isoprene (Biolog PM1 plate); type: cell-based; details: 0.2% yeast extract, compound as carbon source; normalized to α-D-glucose
[3] = target: T1, Dxr from E. coli (Escherichia coli, UniProt P45568); experiment: Dxr inactivation by incubation with DMAPP and HDMAPP; type: biochemical; details: purified Dxr from E. coli
T1 construct: His tag (pET15b) (N); made in house; host or cells: E. coli BL21(λDE3)
T1 sequence (P45568 whole entry): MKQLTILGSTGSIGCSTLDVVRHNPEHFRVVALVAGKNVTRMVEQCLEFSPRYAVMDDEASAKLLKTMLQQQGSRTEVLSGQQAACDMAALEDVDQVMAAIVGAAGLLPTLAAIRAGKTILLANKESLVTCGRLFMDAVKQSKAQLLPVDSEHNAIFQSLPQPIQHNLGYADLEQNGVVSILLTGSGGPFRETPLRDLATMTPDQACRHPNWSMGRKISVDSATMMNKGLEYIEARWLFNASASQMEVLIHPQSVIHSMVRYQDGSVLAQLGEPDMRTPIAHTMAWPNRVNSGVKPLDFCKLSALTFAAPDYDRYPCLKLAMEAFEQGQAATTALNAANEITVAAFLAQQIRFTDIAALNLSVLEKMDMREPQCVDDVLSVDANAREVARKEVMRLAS
Description: The purified protein, 5 uM, was incubated at several concentration of DMAPP or HMBPP (Echelon Bioscience, Salt Lake City, Utah) in buffer consisting of 100 mM Tris, 100 mM NaCl pH 8, 5 mM MgCl2, 0.2 mM NADPH, 0.2 mM DXP, and 250 nM DXR. D at 37° C. for two hour in a total volume of 50 uL. Dxr activity was measured periodically according to standard assay, see, e.g., Koppisch et al, Biochemistry, 41:236-43 (2002) with a 20-fold dilution of the inactivation reaction mixture. […] Where appropriate additional control activity assays were conducted in the presence of a 20-fold diluted concentration of inactivators (DMAPP or HMBPP).

[4] = system: E. coli strain MCM597; experiment: Nitrogen sources affecting isoprene production (Biolog PM3B plates); type: cell-based; details: 0.5% glucose as sole carbon source, no yeast extract; p<0.1
[5] = about 1 atmosphere and about 60° F.; cited from earlier work
[6] = system: REM A2—17 strain; experiment: Specific productivity of isoprene of strain REM A2—17 in the presence and absence of fosmidomycin (headspace assay); type: cell-based, E. coli; details: 2 mM fosmidomycin; for activity at 2000 µM: Escherichia coli, 0.75 h, read-out: fraction of isoprene produced during exposure to fosmidomycin relative to absence of the inhibitor (MVA-flux)
[7] = system: REM A2—17 strain; experiment: Accumulation of DXP and MVA pathway metabolites in REM A2—17 with and without fosmidomycin (LC-MS/MS); type: cell-based, E. coli; details: 2 mM fosmidomycin, 45 min. incubation
[8] = system: E. coli BL21 strain harboring the GI1.6-dxr locus; experiment: Isoprene production with fosmidomycin in the growth media, GI1.6-dxr strain; type: cell-based; details: 1 mM fosmidomycin in the growth media
[9] = system: dxr null E. coli BL21 strain; type: cell-based
[10] = Flammability limits of isoprene (computer simulation and experimental testing); type: physicochemical
Source text: Thus, computer modeling and experimental testing were used to determine the flammability limits of isoprene (such as isoprene in the presence of O2, N2, CO2, or any combination of two or more of the foregoing gases) in order to ensure process safety. The flammability envelope is characterized by the lower flammability limit (LFL), the upper flammability limit (UFL), the limiting oxygen concentration (LOC), and the limiting temperature. For a system to be flammable, a minimum amount of fuel (such as isoprene) must be in the presence of a minimum amount of oxidant, typically oxygen. The LFL is the minimum amount of isoprene that must be present to sustain burning, while the UFL is the maximum amount of isoprene that can be present. Above this limit, the mixture is fuel rich and the fraction of oxygen is too low to have a flammable mixture. The LOC indicates the minimum fraction of oxygen that must also be present to have a flammable mixture. The limiting temperature is based on the flash point of isoprene and is that lowest temperature at which combustion of isoprene can propagate. These limits are specific to the concentration of isoprene, type and concentration of oxidant, inerts present in the system, temperature, and pressure of the system. […]

[11] = system: strains REM H8—12 and REM I7—11; type: cell-based, E. coli
[12] = approx. 45 minutes, unlabeled culture without tryptophan (FIG. 98)

| Structure (SMILES) | specific productivity of isoprene [1] | specific isoprene production [4] | other results |
| --- | --- | --- | --- |
| CC(O)C(C)O (stereo not drawn) [2,3-butanediol] | increasing | – | – |
| NCCO [2-aminoethanol] | increasing | – | – |
| OC[C@H]1O[C@@H](O[C@H]2[C@H](O)[C@@H](O)[C@H](O)O[C@@H]2CO)[C@H](O)[C@@H](O)[C@@H]1O [D-cellobiose] | increasing | – | – |
| O=C(CO)[C@@H](O)[C@H](O)[C@H](O)CO [D-fructose] | – | – | specific productivity of isoprene [2]: increasing |
| O=C[C@H](O)[C@@H](O)[C@@H](O)[C@H](O)C(=O)O [D-galacturonic acid] | increasing | – | specific productivity of isoprene [2]: increasing |
| O=C(O)[C@H](O)[C@@H](O)[C@H](O)[C@H](O)CO [D-gluconic acid] | increasing | – | – |
| N[C@@H](C(=O)O)[C@@H](O)[C@H](O)[C@H](O)CO [D-glucosaminic acid] | increasing | – | – |
| O=C[C@H](O)[C@@H](O)[C@H](O)[C@H](O)COP(=O)(O)O [D-glucose-6-phosphate] | – | – | specific productivity of isoprene [2]: increasing |
| OC[C@@H](O)[C@@H](O)[C@H](O)[C@H](O)CO [D-mannitol] | – | – | specific productivity of isoprene [2]: increasing |
| O=C[C@@H](O)[C@@H](O)[C@H](O)[C@H](O)CO [D-mannose] | increasing | – | – |
| O=C(CO)[C@H](O)[C@H](O)[C@H](O)CO [D-psicose] | increasing | – | – |
| OC[C@H]1O[C@H](O[C@H]2O[C@H](CO)[C@@H](O)[C@H](O)[C@H]2O)[C@H](O)[C@@H](O)[C@@H]1O [D-trehalose] | – | – | specific productivity of isoprene [2]: increasing |
| C/C(=C\COP(=O)(O)OP(=O)(O)O)CO [HMBPP, 1-hydroxy-2-methyl-2-(E)-butenyl 4-diphosphate] | – | – | Dxr activity after incubation with the compound [3]: inactivated |
| NC(=O)C[C@H](N)C(=O)O [L-asparagine] | – | increasing | – |
| N[C@@H](CC(=O)O)C(=O)O [L-aspartic acid] | – | increasing | – |
| O=C1O[C@H]([C@@H](O)CO)[C@@H](O)[C@@H]1O [L-galactonic acid-γ-lactone] | increasing | – | – |
| N[C@@H](CCC(=O)O)C(=O)O [L-glutamic acid] | – | increasing | – |
| O=C(O)C[C@H](O)C(=O)O [L-malic acid] | increasing | – | – |
| CSCC[C@H](N)C(=O)O [L-methionine] | – | negatively affecting | – |
| N[C@@H](Cc1ccccc1)C(=O)O [L-phenylalanine] | increasing | – | – |
| N[C@@H](CO)C(=O)O [L-serine] | – | increasing | – |

| Structure (SMILES) | specific productivity of isoprene [1] | specific isoprene production [4] | other results |
| --- | --- | --- | --- |
| C[C@@H](O)[C@H](N)C(=O)O [L-threonine] | – | increasing | – |
| N[C@@H](Cc1c[nH]c2ccccc12)C(=O)O [L-tryptophan] | – | increasing | – |
| N[C@@H](Cc1ccc(O)cc1)C(=O)O [L-tyrosine] | – | negatively affecting | – |
| CC(=O)N[C@H]1C(O)O[C@H](CO)[C@@H](O)[C@@H]1O (stereo partly drawn) [N-acetyl-D-glucosamine] | – | – | specific productivity of isoprene [2]: increasing |
| Nc1ncnc2nc[nH]c12 [adenine] | – | negatively affecting | – |
| N [ammonia] | – | did not significantly change | – |
| CCO [ethanol] | – | – | limiting oxygen concentration (LOC) [5]: about 8.7 vol %; lower flammability limit (LFL) [5]: about 3.3 vol % |
| O=CN(O)CCCP(=O)(O)O [fosmidomycin] | – | – | decrease in isoprene production with fosmidomycin (DXP-flux) ([6]; 1-13C glucose culture with 50 uM tryptophan (FIG. 98)): 51%; decrease in isoprene production with fosmidomycin (DXP-flux) ([6]; 1-13C glucose culture without tryptophan): 42% and 43%; decrease in isoprene production with fosmidomycin (DXP pathway contribution) ([6]; 3-13C glucose): 43% and ~42%; decrease in isoprene production with fosmidomycin (DXP pathway contribution) [6, 12]: ~48%; fraction of isoprene produced during exposure to fosmidomycin relative to absence of the inhibitor (MVA pathway contribution) [6, 12]: roughly 52%; fraction of isoprene produced during exposure to fosmidomycin relative to absence of the inhibitor (MVA pathway contribution) ([6]; approx. 45 minutes, unlabeled glucose (FIG. 96)): roughly 59%; decrease in isoprene production with fosmidomycin (DXP pathway contribution) ([6]; approx. 45 minutes, unlabeled glucose (FIG. 96, 97)): 41%; fraction of isoprene produced during exposure to fosmidomycin relative to absence of the inhibitor (MVA pathway contribution) ([6]; approx. 1 hour, 3-13C glucose (FIG. 99)): roughly 58%; activity at 2000 µM ([6]; approx. 45 minutes, 1-13C glucose culture with 50 uM tryptophan (FIG. 98)): 49%; activity at 2000 µM ([6]; approx. 45 minutes, 1-13C glucose culture without tryptophan (FIG. 98)): 57%; DXP concentration [7]: significant increase; HDMAPP concentration [7]: decrease; concentration of MEP, CDP-ME and cMEPP [7]: drop; concentration of MVA [7]: did not change; decrease of the cumulative amount of IPP and DMAPP [7]: 55%; isoprene production [8]: undetectable level; isoprene production [9]: same level of isoprene production |
| NC(=O)[C@@H](O)[C@@H](O)[C@H](O)[C@@H](O)C=O [glucuronamide] | increasing | – | – |
| Nc1nc2c(ncn2[C@@H]2O[C@H](CO)[C@@H](O)[C@H]2O)c(=O)[nH]1 [guanosine] | – | increasing | – |
| OC[C@H]1O[C@@H](n2cnc3c(O)ncnc32)[C@H](O)[C@@H]1O [inosine] | increasing | increasing | – |
| C=CC(=C)C [isoprene, 2-methyl-1,3-butadiene] | – | – | limiting temperature [10]: about −54 °C; limiting oxygen concentration (LOC) ([10]; isoprene, O2, N2, and CO2 mixture at 40° C. and 1 atmosphere): 9.5 vol % |
| C[C@@](O)(CCO)CC(=O)O [mevalonic acid, (R)-mevalonic acid] | – | – | isoprene specific productivity from mevalonate (m/z of 67) [11]: increased with increasing mevalonic acid concentration; specific productivity of isoprene from [U-13C]-glucose (m/z of 73) [11]: the same |
| O=C(O)[C@@H](O)[C@H](O)[C@H](O)[C@@H](O)C(=O)O [mucic acid] | increasing | – | – |
| O=[N+]([O-])O [nitrate] | – | did not significantly change | – |
| O=NO [nitrite] | – | did not significantly change | – |
| NCCc1ccccc1 [phenylethylamine] | increasing | – | – |
| CCC(=O)O [propionic acid] | increasing | – | – |
| OC[C@H]1O[C@@](CO)(O[C@H]2O[C@H](CO)[C@@H](O)[C@H](O)[C@H]2O)[C@@H](O)[C@@H]1O [sucrose] | increasing | – | – |
| NC(N)=O [urea] | – | did not significantly change | – |
| OC[C@H]1O[C@H](O)[C@H](O)[C@@H](O)[C@@H]1O [α-D-glucose] | – | – | specific productivity of isoprene [2]: increasing |
